Measurements as given in PMC11540844, “Enhancing transcription–replication conflict targets ecDNA-positive cancers” (Nature, 2024).
Where two headings read alike, the source gives them in different places. One block for each compound: values may come before it.

Tests used:
COLO320DM cells = assay: Cell viability / CTG proliferation (CellTiter-Glo); assay type: cell-based, human; details: for IC50: Homo sapiens, COLO 320DM
Description: (§1) Cell viability assay was performed using CellTiter-Glo (Promega, catalgoue no. G8461) as previously described. Briefly, cells were seeded into a 384-well plate one day before adding inhibitors. Equal volumes of vehicles or drugs diluted at indicated concentration were added into each well the next day, and the cells were incubated for three days. On the third day, after equilibrating plate and CellTiter-Glo reagent at room temperature for 30 min, reagent was added into each well and incubated for 15 min at room temperature. Luminescence was measured using a Synergy 2 microplate reader. Four biological replicates were performed for each condition. Data analysis was performed with GraphPad Prism (v.9.1.0).

COLO320HSR cells = assay: Cell viability / CTG proliferation (CellTiter-Glo); assay type: cell-based, human; details: Homo sapiens, COLO-320-HSR; Extended Data Fig. 8
Description: as §1

GBM39HSR cells = assay: Cell viability (CellTiter-Glo); assay type: cell-based, human; details: Homo sapiens; Extended Data Fig. 8
Description: as §1

GBM39ec cells = assay: Cell viability (CellTiter-Glo); assay type: cell-based, human; details: Homo sapiens; Extended Data Fig. 8
Description: as §1

SNU16 cells = assay: Cell viability (CellTiter-Glo); assay type: cell-based, human; details: Homo sapiens, SNU-16; Extended Data Fig. 8; read-out: IC50 SNU16
Description: as §1, with “(v.9.1.0). […]” for “(v.9.1.0).”

pCHK1-S345 in HT29 cells = assay: AlphaLISA SureFire Ultra p-CHK1 (Ser345) assay in HT29 cells; assay type: cell-based; details: Homo sapiens, HT-29, 16 h, read-out: CHK1 cellular potency AlphaLisa (IC50)
Description: Compound activity in cells was measured using an AlphaLISA SureFire Ultra p-CHK1 (Ser345) assay (Perkin Elmer, catalogue no. ALSU-PCHK1-A10K). HT29 cells were cultured in McCoy 5 A medium with 10% FBS and 1% penicillin-streptomycin and seeded to 96-well plates (Corning, catalogue no. 3599). Compounds were serially diluted in DMSO over a 10-point dose range with 3-fold dilution, and compound solution was added to each well containing cells. Plates were centrifuged at 1,000 rpm for 30 s. Plates were incubated at 37 °C for 16 h. Supernatant was removed by flicking the plate against a paper towel. Wells were washed once with PBS solution. To each well was added freshly prepared lysis buffer and plates were agitated on a plate shaker at 400 rpm for 30 min. The 96-well cell plates were centrifuged at 1,500 rpm for 1 min. From each well was transferred 10 µl of the lysates to a 384-well Optiplate (Perkin Elmer, catalogue no. 6007290). To each well was added Acceptor Mix (5 µl) and the plates were sealed and wrapped in foil. Plates were agitated on a plate shaker for 2 min, then incubated at room temperature for 1 h. To each well was added Donor Mix (5 µl) and the plates were sealed and wrapped in foil. Plates were agitated on a plate shaker for 2 min, then incubated at room temperature for 1 h. AlphaLisa signal was read on an EnVision multimode plate reader (Perkin Elmer). […]

[1] = test system: γH2AX in COLO320DM and COLO320HSR cells; assay: γH2AX IF combined with EdU labelling; assay type: cell-based, human; details: XL413 combined with CHIR-124
Description: (§2) Coverslips were coated with 100 µg ml^−^1 poly-L-lysine overnight or 10 µg ml^−^1 laminin for 1 h at 37 °C before seeding cells. Asynchronized cells were seeded onto slides and subject to different treatment. Where indicated, EdU was added to each well at 10 µg ml^−^1 30 min before collecting samples. IF and dual-IF DNA FISH staining were performed as described before. Briefly, slides were fixed with ice-cold 4% paraformaldehyde (PFA) for 15 min, followed by permeabilization with 0.5% Triton X-100 in PBS for 15 min at room temperature. Samples were blocked with 3% BSA in PBS for 1 h at room temperature before incubation with primary antibody diluted in blocking buffer at 4 °C overnight. Dilution ratio for first antibodies was as follows: γH2Ax, 1:500; pRPA2-S33, 1:1,000; pCHK1S345, 1:250; 53BP1, 1:500; cyclin A, 1:100; pRNAPII S2/S4, 1:1,000. […]
(§3) Image analysis and quantification were performed using the open-source software CellProfiler (v.4.2.1). For foci number analysis, DAPI staining, IF staining and DNA FISH channel were analysed through automatic thresholding and segmentation to cell nuclei, pRPA2S33/γH2AX foci and DNA FISH foci respectively. […] For fluorescence intensity measurement, nuclei were called based on DAPI channel through automatic thresholding and segmentation; mean fluorescence intensity was retrieved by measuring mean fluorescence intensity within each nucleus.

[2] = test system: pRNAPII S2/S4 in COLO320DM and COLO320HSR cells; assay: Active RNA polymerase II IF; assay type: cell-based, human; details: triptolide treatment
Description: as §2, §3

[3] = test system: pRPA2-S33 foci in COLO320DM cells; assay: pRPA2-S33 IF (replication stress); assay type: cell-based, human
Description: as §2, §3

[4] = test system: pRPA2-S33 foci in COLO320HSR cells; assay: pRPA2-S33 IF (replication stress); assay type: cell-based, human
Description: as §2, §3

[5] = test system: ssDNA on ecDNA amplicon in COLO320DM and COLO320HSR cells; assay: KAS-seq (ssDNA mapping); assay type: cell-based, human; details: triptolide treatment
Description: KAS-seq experiments were carried out as previously described[12] with modifications. Briefly, cell culture media was supplemented with 5 mM N3-kethoxal (final concentration), and cells were incubated for 10 min at 37 °C in a six-well plate. Genomic DNA was then extracted using the Monarch gDNA Purification Kit (NEB T3010S) following the standard protocol but with elution using 50 µl 25 mM K3BO3 at pH 7.0. Click reaction was carried out by mixing 87.5 µl purified DNA, 2.5 µl 20 mM DBCO-PEG4-biotin (dimethylsulfoxide (DMSO) solution, Sigma, catalogue no. 760749) and 10 µl 10× PBS in a final volume of 100 µl. The reaction was then incubated at 37 °C for 90 min. DNA was purified using AMPure XP beads by adding 50 µl beads per 100 µl reaction, washing beads on a magnetic stand twice with 80% EtOH and eluting in 130 µl 25 mM K3BO3. Purified DNA was then sheared using a Covaris E220 instrument down to around 200–400 bp size. […]
Libraries were sequenced in a paired-end format on an Illumina NextSeq instrument using NextSeq 550 High-Output Kits (2 × 36 cycles). […] Duplicate reads were removed using picard-tools (v.1.99). […]

[6] = test system: RS on HSR in GBM39HSR cells; assay: pRPA2-S33 IF combined with EGFR FISH; assay type: cell-based, human
Description: as §2, §3

[7] = test system: RS on ecDNA in GBM39ec cells; assay: pRPA2-S33 IF combined with EGFR FISH; assay type: cell-based, human
Description: as §2, §3

[8] = Extended Data Fig. 8, read-out: IC50 COLO320DM

Structure (SMILES): COc1cc2nc(-c3cc(F)ccc3O)nc(N[C@@H]3CNC[C@H]3C(C)(C)O)c2cc1OC [CCT241533]
- differential inhibitory effect between ecDNA+ and ecDNA− isogenic cell lines (COLO320DM cells; COLO320DM vs COLO320HSR viability, Extended Data Fig. 8a): no differential inhibitory effect
- IC50 (COLO320DM cells; [8]): 3740 nM
- IC50 (COLO320HSR cells): 4890 nM

- IC50 (COLO320DM cells; [8]): 34.1 nM
- IC50 (COLO320HSR cells): 78.1 nM
- IC50 (SNU16 cells): 8.48 nM
Structure (SMILES): COc1cccc(OCCCN)c1-c1cc(Nc2cnc(C#N)cn2)n[nH]1 [Ly2606368]
- IC50 (GBM39HSR cells): 66.1 nM
- IC50 (GBM39ec cells): 48.8 nM

- IC50 (COLO320DM cells; COLO320DM cells, read-out: CTG proliferation ecDNA+ (IC50)): 1010 nM
- IC50 (COLO320DM cells; [8]): 1110 nM
- IC50 (COLO320HSR cells): 24700 nM
- IC50 (pCHK1-S345 in HT29 cells): 1500 nM
Structure (SMILES): N#Cc1cnc(Nc2cc(NC[C@H]3CNCCO3)c(C(F)(F)F)cn2)cn1 [SRA737]

Structure (SMILES): O=c1[nH]c(C2CCCN2)nc2c1oc1ccc(Cl)cc12 (stereo not shown) [XL413]
- effect on DNA damage induced by CHK1i (γH2AX IF) [1]: partially blocked

Structure (SMILES): CC(C)[C@]12O[C@H]1[C@@H]1O[C@]13[C@]1(O[C@H]1C[C@H]1C4=C(CC[C@@]13C)C(=O)OC4)[C@@H]2O [triptolide]
- transcriptional activity (active RNA polymerase II by IF) [2]: significantly decreased
- pRPA2-S33 foci [3]: significantly decreased
- pRPA2-S33 foci [4]: negligible effect
- ssDNA signals across the ecDNA amplicon (KAS-seq) [5]: drastic reduction
- RS on HSR (pRPA2-S33 IF and EGFR FISH) [6]: no obvious difference
- RS on ecDNA (pRPA2-S33 IF and EGFR FISH) [7]: significantly decreased
